Source: patent US9688645B2, “Macrocyclic urea and sulfamide derivatives as inhibitors of TAFIa” (SANOFI, priority 2008, dated 2017)
Like-named read-outs stand apart in the source and are kept apart here.

How the values were obtained:
[1] = rcm bond, dichloromethane
TAFIa = TAFIa (Homo sapiens (Human), UniProt Q96IY4); assay: TAFIa inhibition, Actichrome plasma TAFI Activity Kit (American Diagnostica); assay type: biochemical; settings: chromogenic read-out at 420 nm, 15 min preincubation at room temperature, pH 7.4, duplicate determination
Procedure: The prepared substances were tested for TAFIa inhibition using the Actichrome plasma TAFI Activity Kit from American Diagnostica (Pr. No. 874). This entailed adding 28 μl of assay buffer (20 mM Hepes, 150 mM NaCl, pH 7.4) and 10 μl of TAFIa (American Diagnostica Pr. No. 874TAFIA; 2.5 μg/ml) to 2 μl of 2.5 mM DMSO solution of the substance and incubating in a 96 half-well microtiter plate at room temperature for 15 minutes. The enzyme reaction was started by adding 10 μl of TAFIa developer (prediluted 1:2 with assay buffer). The time course of the reaction was followed at 420 nm in a microtiter plate reader (SpectraMax plus 384; Molecular Devices) for 15 minutes.
The IC50 values were calculated from the averaged values (duplicate determination) of serial dilutions of the substance with the aid of the Softmax Pro software (version 4.8; Molecular Devices).

Chain of TAFIa (Q96IY4 115-423): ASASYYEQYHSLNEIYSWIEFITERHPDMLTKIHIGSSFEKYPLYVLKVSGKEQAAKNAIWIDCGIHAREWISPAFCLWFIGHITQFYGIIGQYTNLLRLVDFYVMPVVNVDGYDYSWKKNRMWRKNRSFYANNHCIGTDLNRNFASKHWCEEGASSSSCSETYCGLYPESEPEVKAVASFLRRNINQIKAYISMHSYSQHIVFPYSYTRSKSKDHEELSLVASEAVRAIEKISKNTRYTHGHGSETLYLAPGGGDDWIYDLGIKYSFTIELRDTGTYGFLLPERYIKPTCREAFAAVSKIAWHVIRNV

## CC(C)[C@H]1COCC=CCOc2ccc(cc2)C[C@@H](NC(=O)OCC2c3ccccc3-c3ccccc32)C(=O)N1
[1]; from C=CCOC[C@@H](NC(=O)[C@@H](Cc1ccc(OCC=C)cc1)NC(=O)OCC1c2ccccc2-c2ccccc21)C(C)C, dichloro(o-isopropoxyphenylmethylene)(tricyclohexylphosphine)ruthenium (Hoveyda-Grubbs catalyst), 3.61 mM, 40.0 °C, 24.0 h
  ring closure, yield of all isomers: 86.6%

## CC(C)[C@H]1COCC=CCn2cnc(c2)C[C@@H](NC(=O)OCc2ccccc2)C(=O)N1
[1]; from C=CCOC[C@@H](NC(=O)[C@@H](Cc1cn(CC=C)cn1)NC(=O)OCc1ccccc1)C(C)C, benzylidene[1,3-bis(2,4,6-trimethylphenyl)-2-imidazolidinylidene]dichloro(tricyclohexylphosphine)ruthenium (Grubbs II catalyst), 4.38 mM, 25.0 °C
  ring closure, yield of all isomers: 73.3%

## CC(C)[C@H]1COCCCCCC=CCOc2ccc(cc2)C[C@@H](NC(=O)OCC2c3ccccc3-c3ccccc32)C(=O)N1
[1]; from C=CCCCCCOC[C@@H](NC(=O)[C@@H](Cc1ccc(OCC=C)cc1)NC(=O)OCC1c2ccccc2-c2ccccc21)C(C)C, dichloro(o-isopropoxyphenylmethylene)(tricyclohexylphosphine)ruthenium (Hoveyda-Grubbs catalyst), 3.5 mM, 40.0 °C, 24.0 h
  ring closure, yield of all isomers: 90.4%

## CC(C)[C@H]1COCCCCOc2ccc(cc2)C[C@@H](NC(=O)N[C@@H](CCCCN)C(=O)O)C(=O)N1 [Example 1-1, (S)-6-Amino-2-[3-((9S,12R)-9-isopropyl-11-oxo-2,7-dioxa-10-azabicyclo[12.2.2]octadeca-1(17),14(18),15-trien-12-yl)ureido]hexanoic acid]
TAFIa
  IC50: 0.006 µM

## NCCCC[C@H](NC(=O)N[C@@H]1Cc2ccc(cc2)OCCCCOCCNC1=O)C(=O)O [Example 1-2, (S)-6-Amino-2-[3-((R)-11-oxo-2,7-dioxa-10-azabicyclo[12.2.2]octadeca-1(17),14(18),15-trien12-yl)ureido]hexanoic acid]
TAFIa
  IC50: 9.04 µM

## CC1(C)COCCCCOc2ccc(cc2)C[C@@H](NC(=O)N[C@@H](CCCCN)C(=O)O)C(=O)N1 [Example 1-3, (S)-6-Amino-2-[3-((R)-9,9-dimethyl-11-oxo-2,7-dioxa-10-azabicyclo[12.2.2]octadeca-1(17),14(18),15-trien-12-yl)ureido]hexanoic acid]
TAFIa
  IC50: 0.269 µM

## NCCCC[C@H](NC(=O)N[C@@H]1Cc2ccc(cc2)OCCCCOC[C@H](c2ccccc2)NC1=O)C(=O)O [Example 1-4, (S)-6-Amino-2-[3-((9S,12R)-11-oxo-9-phenyl-2,7-dioxa-10-azabicyclo[12.2.2]octadeca-1(17),14(18),15-trien-12-yl)ureido]hexanoic acid]
TAFIa
  IC50: 0.071 µM

## NCCCC[C@H](NC(=O)N[C@@H]1Cc2ccc(cc2)OCCCCOC[C@H](Cc2ccccc2)NC1=O)C(=O)O [Example 1-5, (S)-6-Amino-2-[3-((9S,12R)-9-benzyl-11-oxo-2,7-dioxa-10-azabicyclo[12.2.2]octadeca-1(17),14(18),15-trien-12-yl)ureido]hexanoic acid]
TAFIa
  IC50: 0.105 µM

## NCCCC[C@H](NC(=O)N[C@@H]1Cc2ccc(cc2)OCCCCOC[C@H](C2CCCCC2)NC1=O)C(=O)O [Example 1-6, (S)-6-Amino-2-[3-((9S,12R)-9-cyclohexyl-11-oxo-2,7-dioxa-10-azabicyclo[12.2.2]octadeca-1(17),14(18),15-trien-12-yl)ureido]hexanoic acid]
TAFIa
  IC50: 0.811 µM

## CC[C@H]1COCCCCOc2ccc(cc2)C[C@@H](NC(=O)N[C@@H](CCCCN)C(=O)O)C(=O)N1 [Example 1-7, (S)-6-Amino-2-[3-((9S,12R)-9-ethyl-11-oxo-2,7-dioxa-10-azabicyclo[12.2.2]octadeca-1(17),14(18),15-trien-12-yl)ureido]hexanoic acid]
TAFIa
  IC50: 0.049 µM

## C[C@H]1COCCCCOc2ccc(cc2)C[C@@H](NC(=O)N[C@@H](CCCCN)C(=O)O)C(=O)N1 [Example 1-8, (S)-6-Amino-2-[3-((9S,12R)-9-methyl-11-oxo-2,7-dioxa-10-azabicyclo[12.2.2]octadeca-1(17),14(18),15-trien-12-yl)ureido]hexanoic acid]
TAFIa
  IC50: 0.029 µM

## CC(C)(C)[C@H]1COCCCCOc2ccc(cc2)C[C@@H](NC(=O)N[C@@H](CCCCN)C(=O)O)C(=O)N1 [Example 1-9, (S)-6-Amino-2-[3-((9S,12R)-9-tert-butyl-11-oxo-2,7-dioxa-10-azabicyclo[12.2.2]octadeca-1(17),14(18),15-trien-12-yl)ureido]hexanoic acid]
TAFIa
  IC50: 0.019 µM

## CC(C)[C@H]1COCCCCCCCCOc2ccc(cc2)C[C@@H](NC(=O)N[C@@H](CCCCN)C(=O)O)C(=O)N1 [Example 2-1, (S)-6-Amino-2-[3-((13S,16R)-13-isopropyl-15-oxo-2,11-dioxa-14-azabicyclo[16.2.2]docosa-1(21), 18(22), 19-trien-16-yl)ureido]hexanoic acid]
TAFIa
  IC50: 0.0088 µM

## CC(C)[C@H]1COC/C=C/COc2ccc(cc2)C[C@@H](NC(=O)N[C@@H](CCCCN)C(=O)O)C(=O)N1 [Example 3-1, (S)-6-Amino-2-[3-((E)-(9S,12R)-9-isopropyl-11-oxo-2,7-dioxa-10-azabicyclo[12.2.2]octadeca-1(17),4,14(18), 15-tetraen-12-yl)ureido]hexanoic acid]
TAFIa
  IC50: 0.0077 µM

## CC(C)[C@H]1COCCCCCCCC[C@@H](NC(=O)N[C@@H](CCCCN)C(=O)O)C(=O)N1 [Example 4-1, (S)-6-Amino-2-[3-((3S,6R)-3-isopropyl-5-oxo-1-oxa-4-azacyclotetradec-6-yl)ureido]hexanoic acid]
TAFIa
  IC50: 0.017 µM

## CC(C)[C@H]1COCCCCOc2ccc(cc2)C[C@@H](NC(=O)N[C@@H](CS(=O)(=O)CCN)C(=O)O)C(=O)N1 [Example 5-1, (R)-3-(2-Aminoethanesulfonyl)-2-[3-((9S,12R)-9-isopropyl-11-oxo-2,7-dioxa-10-azabicyclo[12.2.2]octadeca-1(17),14(18), 15-trien-12-yl)ureido]propionic acid]
TAFIa
  IC50: 0.649 µM

## CC(C)[C@H]1COCCCCOc2ccc(cc2)C[C@@H](NC(=O)N[C@@H](Cc2ccc(N)nc2)C(=O)O)C(=O)N1 [Example 5-2, (S)-3-(6-Aminopyridin-3-yl)-2-[3-((9S,12R)-9-isopropyl-11-oxo-2,7-dioxa-10-azabicyclo[12.2.2]octadeca-1(17),14(18), 15-trien-12-yl)ureido]propionic acid]
TAFIa
  IC50: 0.009 µM

## Nc1ccc(C[C@H](NC(=O)N[C@@H]2Cc3ccc(cc3)OCCCCOC[C@H](C3CC3)NC2=O)C(=O)O)cn1 [Example 5-3, (S)-3-(6-Aminopyridin-3-yl)-2-[3-((9S,12R)-9-cyclopropyl-11-oxo-2,7-dioxa-10-azabicyclo[12.2.2]octadeca-1(17),14(18), 15-trien-12-yl)ureido]propionic acid]
TAFIa
  IC50: 0.032 µM

## CC(C)[C@H]1COCCCCn2cnc(c2)C[C@@H](NC(=O)N[C@@H](Cc2ccc(N)nc2)C(=O)O)C(=O)N1 [Example 6-1, (S)-3-(6-Aminopyridin-3-yl)-2-[3-((8S,11R)-8-isopropyl-10-oxo-6-oxa-1,9,14-triazabicyclo[11.2.1]hexadeca-13(16),14-dien-11-yl)ureido]propionic acid]
TAFIa
  IC50: 0.052 µM

## CC(C)[C@H]1COCCCCc2ccc(cc2)C[C@@H](NC(=O)N[C@@H](Cc2ccc(N)nc2)C(=O)O)C(=O)N1 [Example 6-2, (S)-3-(6-Aminopyridin-3-yl)-2-[3-((3R,6S)-6-isopropyl-4-oxo-8-oxa-5-azabicyclo[11.2.2]heptadeca-1(16),13(17), 14-trien-3-yl)ureido]propionic acid]
TAFIa
  IC50: 0.021 µM

## CC(C)[C@H]1COCCCCOc2ccc(cc2F)C[C@@H](NC(=O)N[C@@H](Cc2ccc(N)nc2)C(=O)O)C(=O)N1 [Example 6-3, (S)-3-(6-Aminopyridin-3-yl)-2-[3-((9S,12R)-16-fluoro-9-isopropyl-11-oxo-2,7-dioxa-10-azabicyclo[12.2.2]octadeca-1(17),14(18), 15-trien-12-yl)ureido]propionic acid]
TAFIa
  IC50: 0.012 µM

## CC(C)[C@H]1COCCCCOC[C@@H](NC(=O)N[C@@H](Cc2ccc(N)nc2)C(=O)O)C(=O)N1 [Example 6-4, (S)-3-(6-Aminopyridin-3-yl)-2-[3-((3S,6R)-3-isopropyl-5-oxo-1,8-dioxa-4-azacyclododec-6-yl)ureido]propionic acid]
TAFIa
  IC50: 0.055 µM

## CC(C)[C@H]1COCCC(=O)Nc2ccc(cc2)C[C@@H](NC(=O)N[C@@H](CCCCN)C(=O)O)C(=O)N1 [Example 7-1, (S)-6-Amino-2-[3-((8S,11R)-8-isopropyl-3,10-dioxo-6-oxa-2,9-diazabicyclo[11.2.2]heptadeca-1(16),13(17),14-trien-11-yl)ureido]hexanoic acid]
TAFIa
  IC50: 0.022 µM

## CC(C)[C@H]1COCCNC(=O)c2ccc(cc2)C[C@@H](NC(=O)N[C@@H](Cc2ccc(N)nc2)C(=O)O)C(=O)N1 [Example 7-4, (S)-3-(6-Aminopyridin-3-yl)-2-[3-((8S,11R)-8-isopropyl-2,10-dioxo-6-oxa-3,9-diazabicyclo[11.2.2]heptadeca-1(16),13(17), 14-trien-11-yl)ureido]propionic acid]
TAFIa
  IC50: 0.04 µM

## CC(C)[C@H]1COCC(O)C(O)COc2ccc(cc2)C[C@@H](NC(=O)N[C@@H](CCCCN)C(=O)O)C(=O)N1 (stereo partly drawn) [Example 8-1, (S)-6-Amino-2-[3-((9S,12R)-4,5-dihydroxy-9-isopropyl-11-oxo-2,7-dioxa-10-azabicyclo[12.2.2]octadeca-1(17),14(18),15-trien-12-yl)ureido]hexanoic acid]
TAFIa
  IC50: 0.023 µM

## CC(C)[C@H]1COCC(O)C(O)COc2ccc(cc2)C[C@@H](NC(=O)NC(Cc2ccc(N)nc2)C(=O)O)C(=O)N1 (stereo partly drawn) [Example 8-3, 3-(6-Aminopyridin-3-yl)-2-[3-((9S,12R)-4,5-dihydroxy-9-isopropyl-11-oxo-2,7-dioxa-10-azabicyclo[12.2.2]octadeca-1(17),14(18), 15-trien-12-yl)ureido]propionic acid]
TAFIa
  IC50: 0.059 µM
